These results are taken from US20240173339A1, “CANNABINOID FORMULATION FOR MANAGEMENT OF DEPRESSION, ANXIETY AND PTSD, AND CANNABINOID FORMULATION AS A SLEEP AID” (Zyus Life Sciences Inc., priority 2021, published 2024).

Series [1] concerns CRS mice. Put plainly: Elevated Plus Maze (EPM) in chronic restraint stress mouse model. The format is in vivo, BALB/c mice. Particulars: i.p., CBD 10 mg/kg, CBC 20 mg/kg, or both. How it is done:
(§1) D0-D14: Development of Depression Model by Chronic Restraint Stimulation (CRS) 1 hour per day.
(§2) D15: Treatment of Control and CRS mice (i.p injection of Cannabinoids or Vehicle).
D16: Elevated plus maze test (EPM) (Replicate 1).
D17: Elevated plus maze test (EPM) (Replicate 2).
(§3) Mouse Species. Adult male BALB/c mice were purchased from Charles River Laboratories.
(§4) Distress Model. Adult male BALB/c mice weighing 20-30 g were used for these experiments. Total 160 animals=10 animals/group×8 treatment groups×2 replicates. The mice groups were as following: • 1. Stress Group: Chronic Restraint Stimulation (CRS): N=80 mice • 2. Control Group: No distress […] CRS: N=80 mice
(§5) Group 2—Treatment with CBD (10 mg/kg)
(§6) Group 3—Treatment with CBC (20 mg/kg)
(§7) Group 4—Co-Treatment CBD (10 mg/kg)+CBC (20 mg/kg)
(§8) • Forced Swim Test (FST) • Elevated Plus Maze (EPM) • Open-Field Test (OFT) • Tail Suspension Test (TST)

In series [2] the test system is CRS mice. Put plainly: Forced Swim Test (FST) in CRS mice. It is filed as in vivo, BALB/c mice. The following applies: CBC 20 mg/kg; for anti-depressive effect (reduction of immobility time and greater movement distance in FST): CBD 10 mg/kg, CBD+CBC 10 and 20 mg/kg. On the procedure: as §1, §2
D19: Forced swim test (FST).
as §3, §4, §5, §6, §7, §8

Another series concerns the target CB2 receptors (Homo sapiens, UniProt P34972). Particulars: read-out: affinity (Ki) for CB2 receptors; cited from earlier work.
Another series has as its target CB1 receptors (Homo sapiens, UniProt P21554). The following applies: cited from earlier work.
In series [3] the test system is rodents. Particulars: in vivo; cited from earlier work.
The test system of series [4] is rodents. The following applies: cited from earlier work.
The conditions of series [5]: in vivo; cited from earlier work.
The test system of a further series is rats. Particulars: cited from earlier work.
For series [6] the following is noted: cited from earlier work.

“And” between values parts separate entries of the source, which are not always exact repeats. Identical values can stand only once. Like-named read-outs stand apart in the source and are kept apart here.

Chain of CB2 receptors (P34972 whole entry): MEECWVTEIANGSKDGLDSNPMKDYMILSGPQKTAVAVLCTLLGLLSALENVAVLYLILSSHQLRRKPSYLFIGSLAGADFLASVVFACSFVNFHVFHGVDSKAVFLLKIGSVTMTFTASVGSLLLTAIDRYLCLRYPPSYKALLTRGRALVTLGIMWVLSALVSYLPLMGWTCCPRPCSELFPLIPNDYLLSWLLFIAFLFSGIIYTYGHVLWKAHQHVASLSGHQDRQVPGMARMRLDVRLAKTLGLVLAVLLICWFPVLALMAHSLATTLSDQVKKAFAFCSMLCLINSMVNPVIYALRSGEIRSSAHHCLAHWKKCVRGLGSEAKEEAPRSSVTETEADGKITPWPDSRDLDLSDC
Chain of CB1 receptors (P21554 whole entry): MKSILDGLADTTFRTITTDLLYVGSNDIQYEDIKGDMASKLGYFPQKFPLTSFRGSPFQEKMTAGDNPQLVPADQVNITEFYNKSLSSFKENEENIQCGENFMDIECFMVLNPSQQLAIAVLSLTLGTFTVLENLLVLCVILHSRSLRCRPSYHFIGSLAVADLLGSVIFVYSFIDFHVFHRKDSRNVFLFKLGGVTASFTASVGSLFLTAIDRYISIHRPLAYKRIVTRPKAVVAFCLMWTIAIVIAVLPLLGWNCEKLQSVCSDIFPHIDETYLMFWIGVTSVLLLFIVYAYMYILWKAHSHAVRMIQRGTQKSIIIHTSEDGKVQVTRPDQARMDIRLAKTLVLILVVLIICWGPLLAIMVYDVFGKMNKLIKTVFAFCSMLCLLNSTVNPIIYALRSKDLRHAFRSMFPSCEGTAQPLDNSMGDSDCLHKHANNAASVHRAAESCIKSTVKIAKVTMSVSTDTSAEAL

For `CCCCCc1cc(O)c2c(c1)OC(C)(CCC=C(C)C)C=C2` (stereo not drawn) [CBC, cannabichromene], the “mobility in Elevated Plus Maze (EPM)” value in the series on CRS mice [1] was “significantly higher mobility”. Further, the “FST immobility compared to Vehicle” value with CRS mice [2] (CBD+CBC 10+20 mg/kg) is “marked reduction of immobility”. The “anti-depressive effect (reduction of immobility time and greater movement distance in FST)” value with CRS mice [2] was “significant anti-depressive effect”. Moreover, the Ki (as a rule, the dissociation constant of the complex between target and ligand, obtained from inhibition or displacement) at CB2 receptors was around 100 nM. In addition, the “concentration at which it binds to CB1 receptors” value on CB1 receptors is “higher than 1 micromolar”. The “dose with significant antidepressant effect on FST” value in the series with rodents [3] is listed as 20 mg/kg. In the series with rodents [4] (in vivo), the “dose with significant antidepressant effect on TST” value is 40 mg/kg and 80 mg/kg. For the same compound, the “dose causing decreased locomotor activity” value in [5] was 80 mg/kg and 100 mg/kg.
Regarding `C=C(C)[C@@H]1CCC(C)=C[C@H]1c1c(O)cc(CCCCC)cc1O` [CBD, cannabidiol, reference compound], the “mobility in Elevated Plus Maze (EPM)” value with CRS mice [1] is “significantly higher mobility”. Besides, the “anti-depressive effect (reduction of immobility time and greater movement distance in FST)” value in the series with CRS mice [2] is given as “significant anti-depressive effect”. Besides, the “change on TST” value with rodents [4] (at any dose) is reported as “did not cause a significant change”. In addition, the “dose causing decreased locomotor activity” value in [5] is reported as 200 mg/kg. Also, in the series on rats, the “dose showing anti-inflammatory and immunomodulatory effects” value was 5 to 20 mg/kg. Besides, the anti-anxiety effect result in series [6] (high dose (100 mg/kg)) is reported as “failed”; in [6] (low dose (10 mg/kg)) it was “effective”.
